# Laboratory results from PubChem BioAssay (NCI).
# “And” between values parts separate entries of the source, which are not always exact repeats. Identical values can stand only once.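 Compound exposure: 48 hours, 5 concentrations, 96-well plates. At the GI50, growth is halved. Definition used: TGI = concentration required for complete inhibition of growth.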
# Test system: MDA-MB-468 breast
# Test: DTP human tumour cell line panel, 48 h
Compound,GI50,TGI
COc1cc(C2C3=C(COC3=O)N(CCO)c3cc4c(cc32)OCO4)cc(OC)c1O (centres undefined),0.819 µM,2.62 µM
C=C1C(=O)O[C@H]2[C@H]1CC/C(COC(=O)NCCc1c[nH]c3ccc(Cl)cc13)=C\CC[C@@]1(C)O[C@@H]21,1.65 µM,3.31 µM
ClCc1cccc(CSc2ncnc3c2ncn3Cc2cccc(CCl)c2)c1,1.3 µM,2.85 µM
Cc1ccc(-c2nc(-c3cn(C)c4ncccc34)cs2)cc1,2.66 µM,9.92 µM
Cc1ccc(-c2nc([P+](c3ccccc3)(c3ccccc3)c3ccccc3)c(Nc3ccccc3)o2)cc1,0.232 µM,0.719 µM
O=C(CC(=O)c1cccc(Cl)c1)c1cccc(Cl)c1,1.77 µM,8.76 µM
Nc1nc(N)c2cc(Sc3cccc(C(F)(F)F)c3)ccc2n1,1.02 µM,2.55 µM
O=C(Nc1ccccc1O)c1ccc(NS(=O)(=O)c2cccc3cccnc23)cc1,0.679 µM,3.75 µM
COc1cccc(/C(C)=N/NC(=O)CSc2nc3ccccc3c(=O)n2CCc2ccc(S(N)(=O)=O)cc2)c1,3.16 µM,8.76 µM
O=C(NCCNc1nccc(-c2c(-c3cccc(O)c3)nc3sccn23)n1)c1ccccc1,3.6 µM,28.7 µM
COc1ccc(/C=C\c2cc(OC)c(OC)c(OC)c2)cc1OCC(=O)Nc1ccc2nc(C)sc2c1,2.39 µM,14 µM
Cn1cc(-c2nn3cc(-c4ccncc4)nc3s2)c2cc(Cl)ccc21,2.19 µM,7.84 µM
COc1cccc(C2C3=C(COC3=O)N(CCO)c3cc4c(cc32)OCO4)c1 (centres undefined),0.131 µM,
O=C(Nc1cc(Oc2cc(F)c(NC(=O)C3(C(=O)Nc4ccc(F)cc4)CC3)cc2F)ccn1)C1CC1,3.17 µM,6.14 µM
COc1ccccc1NS(=O)(=O)c1ccc2oc(SC(C)C)nc2c1,2.38 µM,17.6 µM
CCOC(=O)c1ccc2c(c1)[n+](=O)c(C(C)=O)c(C(F)(F)F)n2[O-],1.59 µM,3.29 µM
N#CN1CC[C@H](C(=O)Nc2cc3cc(C(N)=O)ccc3cn2)C1,< 0.0146 µM,0.0289 µM
Cc1cc(Cl)ccc1Nc1nc(C(F)(F)F)ccc1C(=O)N/N=C/c1ccccc1Cl,1.88 µM,> 100 µM
CCOC(=O)c1cnn2c3ccccc3n(S(=O)(=O)c3ccc(OC)cc3)c12,0.324 µM,> 100 µM
CCOC(=O)c1c(NCC(=O)Nc2cccc([N+](=O)[O-])c2)sc2c1CCCC2,0.333 µM,1.43 µM
O=C(C[P+](c1ccccc1)(c1ccccc1)c1ccccc1)C[P+](c1ccccc1)(c1ccccc1)c1ccccc1,0.165 µM,0.508 µM
CC(=O)c1cc(C(=O)c2ccc3c(c2)Sc2ccccc2N3)c2c(C)cccn12,0.175 µM,> 96 µM
c1ccc([As]=[As]c2ccccc2)cc1 (centres undefined),0.541 µM,2.31 µM

Compound,GI50,TGI
Cc1ccc(NCCN(C)C)c2c(=O)c3ccccc3sc12,1.67 µM,3.26 µM
NC(=Nc1ccc(N)cc1)C(N)=Nc1ccc(N)cc1,> 100 µM,> 100 µM
COc1cc2c(=O)n(CCN(C)C)c3c4cc5c(cc4ccc3c2cc1OC)OCO5,0.115 µM,0.303 µM
Cc1cnc(Nc2ccc(N3CCN(C)CC3)cc2)nc1Nc1ccc(Cl)c(NS(=O)(=O)C(C)(C)C)c1,0.153 µM,2.2 µM
CCS(=O)(=O)c1ccc(OC)c(Nc2ncc(-c3ccccc3Cl)o2)c1,6.53 µM,19.6 µM
Cc1c(C(N)=O)sc2c1c(=O)n(Cc1ccccc1)c1nnc(-c3ccc(Br)cc3)n21,2.04 µM,6.94 µM
O=S(=O)(Nc1ccc(F)c(Cl)c1)c1ccc(-c2cnc(C3CC3)o2)cc1,0.0982 µM,1.63 µM
CNS(=O)(=O)OCC1OC(n2cnc3c(N)ncnc32)C(O)C1O (centres undefined),28.9 µM,> 100 µM
COc1ccc(Cn2cc3c(c2-c2ccccc2)CCc2cnoc2-3)cc1N,0.039 µM,0.385 µM
CCOC(=O)/C=C/C(=O)[C@H](CC(C)C)NC(=O)[C@H](Cc1ccccc1)NC(=O)OCc1ccccc1,2.36 µM,5.07 µM
CN1CCN(CCOc2cc(OC3CCOCC3)c3c(Nc4c(Cl)ccc5c4OCO5)ncnc3c2)CC1,0.773 µM and 0.548 µM,3.49 µM and 7.54 µM
Cc1cc(Nc2cc(N3CCN(C)CC3)nc(Sc3ccc(NC(=O)C4CC4)cc3)n2)n[nH]1,0.24 µM,> 10 µM
O=C(/C=C/C12c3ccccc3C(c3ccccc31)C1C(=O)NC(=O)C12)c1ccc(Cl)cc1 (centres undefined),1.7 µM,3.47 µM
CCCCCCCC(=O)OCC(=O)[C@]1(O)Cc2c(O)c3c(c(O)c2[C@@H](OC2CC(N)C(O)C(C)O2)C1)C(=O)c1c(OC)cccc1C3=O (some centres undefined),0.0398 µM,0.301 µM
COc1ccc(C2C=C(c3ccc(Cl)cc3)N=C3SC=C(C)N32)c(Br)c1 (centres undefined),1.91 µM,6.13 µM
COc1cc(/C=C/c2cc(/C=C/c3ccc(O)c(OC)c3)n(C(=O)Nc3ccc(Cl)cc3)n2)ccc1O,0.31 µM,1.82 µM
CN1CCN(Cc2ccc3c(NNC(=O)c4ccccc4)nc4cc(F)ccc4n23)CC1,0.237 µM,1.65 µM
NC(=S)N=Nc1c(O)c2ccccc2c2ccccc12,44.3 µM,> 100 µM
C#COc1cccc(Nc2ncnc3cc(NC(=O)[C@H](C)Cl)ccc23)c1,11.7 µM,61 µM
COc1cc(NCCN=C(N)NC(N)=NC(C)C)c2ncccc2c1,0.162 µM,0.603 µM
C[C@@H]1COCCN1c1cc(C2([S@@](C)(=N)=O)CC2)nc(-c2ccnc3[nH]ccc23)n1,2.73 µM,25.6 µM
Nc1nc(=O)n([C@@H]2CS[C@H](CO)O2)cc1F,> 100 µM,> 100 µM
